Experimental data published in US20150004110A1, “NOVEL ANTI-AGING AND DEPIGMENTING COSMETIC COMPOSITIONS” (DIVERCHIM, priority 2011, published 2015).

What was measured:
[1] = system: collagen VII; test: Staining and immunolabelling of skin explant sections: collagen VII; type: cell-based, human; details: treated skin explant sections
Method: (§1) 1. Preparation of the explants • During abdominoplasty of a person, 45 skin explants were prepared. The explants were put in BEM medium (BIO-EC's Explants Medium) for survival at 37° C. in humid atmosphere, enriched with 5% CO2.
(§2) 2. Application of the products • The solutions are prepared in DMSO from pure products, in order to obtain final concentrations of […] by incorporating an identical volume of 10 μl in each well and for each treatment. The treatment was carried out in the survival medium on days 0, 1, 2, 5 and 7.
(§3) 3. Taking samples • On D0, the 3 explants of batch TO were taken and each explant was cut in two. One part was fixed in buffered formol for observation of the general morphology. The other was frozen and stored at −80° C. • On D5 and D9, 3 explants from each batch were taken and treated in the same way.
(§4) 4. Histological treatment • After fixation for 48 hours in buffered formol, the samples were dehydrated and embedded in paraffin using a Leica 1020 automatic dehydrator. They were embedded according to procedure MO-H-153 using a Leica EG 1160 coating station. Sections of 5 μm were prepared according to procedure MO-H-173 using a Minot-type microtome, Leica RM 2125 and mounted on Superfrost® histological glass slides.
(§5) 6. Staining and immunolabelling
(§6) Immunolabelling will be carried out on sections with the appropriate antibody. […]

[2] = target: T1, PPARα (h) (Homo sapiens, UniProt Q07869); test: PPARα agonist effect, coactivator Alpha screen; type: biochemical
T1 sequence (Q07869 1-468): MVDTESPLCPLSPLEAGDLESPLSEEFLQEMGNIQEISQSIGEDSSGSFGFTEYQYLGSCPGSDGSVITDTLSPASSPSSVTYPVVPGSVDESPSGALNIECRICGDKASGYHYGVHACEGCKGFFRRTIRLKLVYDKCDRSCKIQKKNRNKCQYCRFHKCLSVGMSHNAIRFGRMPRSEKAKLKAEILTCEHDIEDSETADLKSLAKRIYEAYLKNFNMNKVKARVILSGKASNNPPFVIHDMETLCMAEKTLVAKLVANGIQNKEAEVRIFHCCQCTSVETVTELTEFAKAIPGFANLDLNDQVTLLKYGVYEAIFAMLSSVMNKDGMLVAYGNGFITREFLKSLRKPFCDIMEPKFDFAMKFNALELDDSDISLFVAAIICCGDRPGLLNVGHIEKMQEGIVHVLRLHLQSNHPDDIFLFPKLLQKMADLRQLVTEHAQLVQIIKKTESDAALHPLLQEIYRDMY
Method: (§7) The agonist or antagonist activity of compound 1 on the PPAR receptors was tested by fluorescence techniques. • Material and Methods
(§8) The results are expressed as: • percentage of control specific agonist response (measured specific response/control specific agonist response)×100) and • percentage inhibition of the control specific agonist response (100−((measured specific response)/control specific agonist response)×100)) obtained in the presence of compound 1.
(§9) The EC50 values (concentration at which the maximum specific response is 50%) and the IC50 values (concentration at which the maximum control specific agonist response is inhibited by 50%) are determined by non-linear regression analysis of the concentration-response curves with a mean replicated value using adjustment of Hill's equation

[3] = system: skin explants (abdominoplasty); test: Histological assessment of the general morphology of skin explants maintained in survival; type: cell-based, human; details: 2 μg/mL in DMSO, after 9 days of survival
Method: as §1, §2, §3
4. […]
5. Microscopic observations • The microscopic observations were carried out by light microscopy and fluorescence microscopy, using a Orthoplan-type Leica microscope, with ×25 objective. The images were recorded with a Sony DXC 390P tri CCD camera and stored using the Leica IM1000 data archiving software. • The general morphology was observed on sections in paraffin after staining with Masson trichrome, Goldner variant according to procedure MO-H-157. […]

[4] = target: T2, PPARδ (h) (Homo sapiens, UniProt Q03181); test: PPARδ agonist effect, coactivator Alpha screen; type: biochemical
T2 sequence (Q03181 1-441): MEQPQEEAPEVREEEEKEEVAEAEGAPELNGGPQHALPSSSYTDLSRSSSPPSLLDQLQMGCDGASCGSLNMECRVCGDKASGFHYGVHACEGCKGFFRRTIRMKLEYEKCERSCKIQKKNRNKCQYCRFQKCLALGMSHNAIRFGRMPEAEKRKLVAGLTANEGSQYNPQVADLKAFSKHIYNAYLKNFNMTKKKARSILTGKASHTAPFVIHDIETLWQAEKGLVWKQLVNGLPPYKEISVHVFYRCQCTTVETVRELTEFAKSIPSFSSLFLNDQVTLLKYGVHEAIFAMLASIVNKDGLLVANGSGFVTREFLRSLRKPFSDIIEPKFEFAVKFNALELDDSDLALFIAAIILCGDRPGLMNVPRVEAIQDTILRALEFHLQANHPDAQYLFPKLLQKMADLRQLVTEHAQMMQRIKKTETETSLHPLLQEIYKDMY
Method: as §7, §8, §9

[5] = system: collagen IV; test: Staining and immunolabelling of skin explant sections: collagen IV; type: cell-based, human; details: treated skin explant sections
Method: as §1, §2, §3, §4, §5, §6

[6] = system: matrix metallopeptidase gene MMP9; test: RT-qPCR expression of MMP9 in keratinocytes; type: cell-based, human; details: 10 μM
Method: The expression of the specific markers was evaluated by RT-qPCR (reverse transcription quantitative polymerase chain reaction) on messenger RNAs extracted from the cell lawns from each treatment. The transcriptomic profile contains 64 genes selected for their importance in keratinocyte differentiation. The PCR reactions (polymerase chain reactions) were carried out by quantitative PCR with the “Light Cycler” system (Roche Molecular System Inc.) according to the procedures recommended by the supplier. Normal human epidermal keratinocytes were incubated in the presence of compound 1 or a reference with calcium chloride. The expression of the specific markers was evaluated by RT-qPCR on the messenger RNAs extracted from the cell lawns from each treatment.

[7] = system: Transglutaminase K, TGK; test: In situ immunolabelling of TGK in keratinocytes; type: cell-based; details: normal human epidermal keratinocytes
Excerpt: Transglutaminase K, TGK, and filaggrin are two protein markers of epidermal differentiation involved in arrangement of the keratin filaments and formation of the envelope of the stratum corneum.

In the case of Oc1ccccc1CCOc1ccc(F)cc1 [Compound 1, 2-[2-(4-fluoro-phenoxy)-ethyl]-phenol], the “Collagen VII along the dermal-epidermal junction” value [1] is reported as “moderate overexpression”, the “% Control agonist response” value ([2]; 10^−5 M) is reported as 2% and the “% Control agonist response” value ([2]; 10^−6 M) is reported as 0%. For the same compound, the “% Control agonist response” value ([2]; 10^−7 M) was −1%, the “PPARα agonist activity (conclusion in words)” value ([2]; 10^−7 to 10^−5 M) was “not an agonist” and the “General morphology: epidermal structure and papillary dermis” value [3] was “very clear epidermal and dermal restructuring activity”. The “% Control agonist response” value ([4]; 10^−5 M) was 2%, the “% Control agonist response” value ([4]; 10^−6 M) was 4% and the “% Control agonist response” value ([4]; 10^−7 M) was 2%. The “PPARδ agonist activity (conclusion in words)” value ([4]; 10^−7 to 10^−5 M) was “not an agonist”, the “Collagen IV along the dermal-epidermal junction” value [5] was “clear overexpression” and the “Expression of the MMP9 gene” value [6] was “inhibition of expression”. The “Protein expression of TGK” value [7] was “concentration-dependent stimulation of protein expression”.
